{
  "source": "patent US9890400B2",
  "about": "“Method of production of 2,4-dihydroxybutyric acid” (ADISSEO FRANCE S.A.S., priority 2012, dated 2018)",
  "key": {"malic enzyme": {"tested_on": "malic enzyme", "settings": "Rognstad & Katz, 1979; cited from earlier work"}, "[1]": {"molecular_target": "T1, Metallosphaera sedula succinic semialdehyde reductase (Ms-SSR), wild type, SEQ ID No. 16 (Metallosphaera sedula, UniProt A4YGN0)", "T1 construct": "full length 360 aa", "T1 sequence (A4YGN0 1-360)": "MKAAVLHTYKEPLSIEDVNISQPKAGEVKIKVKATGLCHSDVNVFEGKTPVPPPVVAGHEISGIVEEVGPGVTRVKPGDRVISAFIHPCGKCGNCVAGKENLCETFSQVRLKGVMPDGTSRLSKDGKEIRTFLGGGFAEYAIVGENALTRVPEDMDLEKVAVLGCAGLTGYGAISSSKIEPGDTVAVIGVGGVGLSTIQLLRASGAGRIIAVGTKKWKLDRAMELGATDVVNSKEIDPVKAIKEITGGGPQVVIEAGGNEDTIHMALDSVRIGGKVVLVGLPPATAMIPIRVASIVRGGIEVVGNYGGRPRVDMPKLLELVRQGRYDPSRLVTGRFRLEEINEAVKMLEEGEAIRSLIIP", "test": "Malate semialdehyde reductase activity", "format": "biochemical", "settings": "NADH or NADPH, pH 7.5, 30° C., average of at least two independent experiments", "procedure": "To identify a suitable 2,4 DHB dehydrogenase, beta-hydroxyacid dehydrogenases from different biological sources were tested for their ability to reduce malate semialdehyde. […] The genes YPR1, 4hbdh, yqhD, and Ms-SSR were amplified using primers listed in Table 5 and cloned into vector pET28 (restriction enzymes see Table 5) yielding plasmids pET28-Sce-YPR1, pET28-Pgi-4-hbdh, pET28-Eco-yqhd and pET28-Mse-SSR, respectively. The proteins were expressed and purified as described in Example 1.\n(§1) Test for Malate Semialdehyde Reductase Activity: (L)-Malate semialdehyde+NAD(P)H→(L)-2,4-dihydroxybutyric acid+NAD(P) Reaction scheme:\n(§2) The assay mixture contained 200 mM Hepes (pH 7.5), 50 mM KCl, 5 mM MgCl2, 0.24 mM NADH or NADPH, and appropriate amounts of purified enzyme or cell extract. Reactions were started by adding 10 mM (L)-malate semialdehyde (malate semialdehyde was prepared freshly for each test, see Example 3). Enzymatic assays were carried out at 30° C. in 96-well flat bottomed microtiter plates in a final volume of 250 μL. The reactions were followed by the characteristic absorption of NAD(P)H at 340 nm (εNADPH=6.22 mM^−1 cm^−1) in a microplate reader (BioRad 680XR)."}, "[2]": {"molecular_target": "T2, Metallosphaera sedula succinic semialdehyde reductase (Ms-SSR) mutant N43H, SEQ ID No. 34 (Metallosphaera sedula, UniProt A4YGN0, N43H)", "T2 sequence (A4YGN0 1-360 N43H)": "T1 sequence (A4YGN0 1-360) with N43H", "test": "Malate semialdehyde reductase activity", "format": "biochemical", "settings": "NADH or NADPH, pH 7.5, 30° C., average of at least two independent experiments", "procedure": "as §1, §2\n(§3) Site-directed mutagenesis was carried out using the oligonucleotide pairs listed in Table 6 and the pET28-Mse-SSR plasmid as the template. Point mutations to change the amino acid sequences were introduced by PCR (Phusion 1U, HF buffer 20% (v/v), dNTPs 2.5 mM, direct and reverse primers 1 μM each, template plasmid 200 ng, water). When possible, plasmids created by PCR contained new restriction sites (introduced using silent mutations) in addition to the functional mutation to facilitate identification of mutated clones. The PCR products were digested by DpnI at 37° C. for 2×2 h to remove template DNA, and transformed into NEB DH5-α competent E. coli cells (NEB). The mutated plasmids were identified by restriction site analysis and verified to carry the desired mutations by DNA sequencing."}, "[3]": {"molecular_target": "T3, Metallosphaera sedula succinic semialdehyde reductase (Ms-SSR) mutant H39R, SEQ ID No. 32 (Metallosphaera sedula, UniProt A4YGN0, H39R)", "T3 sequence (A4YGN0 1-360 H39R)": "T1 sequence (A4YGN0 1-360) with H39R", "test": "Malate semialdehyde reductase activity", "format": "biochemical", "settings": "NADH or NADPH, pH 7.5, 30° C., average of at least two independent experiments", "procedure": "as §1, §2, §3"}, "[4]": {"molecular_target": "T4, Metallosphaera sedula succinic semialdehyde reductase (Ms-SSR) double mutant H39R N43H, SEQ ID No. 36 (Metallosphaera sedula, UniProt A4YGN0, H39R/N43H)", "T4 sequence (A4YGN0 1-360 H39R/N43H)": "T1 sequence (A4YGN0 1-360) with H39R, N43H", "test": "Malate semialdehyde reductase activity", "format": "biochemical", "settings": "NADH or NADPH, pH 7.5, 30° C., average of at least two independent experiments", "procedure": "as §1, §2, §3"}},
  "note": "Changes are numbered by the printed parent chain.",
  "data": [
    {"molecule": "O=C(O)[C@@H](O)CCO", "note": "[2,4-DHB, 2,4-dihydroxybutyric acid]", "values": [
      {"measurement": "inhibition of malic enzyme", "setting": "malic enzyme", "value": "competitive inhibitor"}
    ]},
    {"molecule": "O=CC[C@H](O)C(=O)O", "note": "[malate semialdehyde, (L)-malate semialdehyde]", "values": [
      {"measurement": "Maximum activity", "setting": "[1]", "value": "4.9 μmol/(min * mgprot)"},
      {"measurement": "Maximum activity", "setting": "[2]", "value": "4.3 μmol/(min * mgprot)"},
      {"measurement": "Maximum activity", "setting": "[3]", "value": "1.7 μmol/(min * mgprot)"},
      {"measurement": "Maximum activity", "setting": "[4]", "value": "4.7 μmol/(min * mgprot)"}
    ]}
  ]
}
